Test results taken from patent US20240018501A1, “HIGHER PERFORMANCE PROTEASES FOR SCARLESS PEPTIDE TAG REMOVAL” (priority 2017, published 2024).
Ends that are not written are not given here. * marks the point of attachment. Butanoyl(2-oxo) = CCC(=O)C(=O)*; Pyruvoyl = CC(=O)C(=O)*

B1: CylA: class II LanP subtilisin-like serine protease of enterococcal cytolysin biosynthesis, SEQ ID NO: 9 (protein)
chain: MKKRGLTYILISYIFLILGTTGYASDLSNNISFFIDNSQTTAIEEIESELSSEKVDYIQEIGLVSFKNLDDSDRKFIGKYFNVSEGKKLPDFKPEEVNSSILNINILNKDFKSFNWPYKKILSHIDPVKEQLGKDITIALIDSGIDRLHPNLQDNNLRLKNYVNDIELDEYGHGTQVAGVIDTIAPRVNLNSYKVMDGTDGNSINMLKAIVDATNDQVDIINVSLGSYKNMEIDDERFTVEAFRKVVNYARKNNILIVASAGNESRDISTGNEKHIPGGLESVITVGATKKSGDIADYSNYGSNVSIYGPAGGYGDNYKITGQIDAREMMMTYYPTSLVSPLGKAADFPDGYTLSFGTSLATPEVSAALAAIMSKNVDNSKDSNEVLNTLFENADSFIDKNSMLKYKEVRIK
modifications: … PEPTIDE SEQUENCE FOR FULL LENGTH CylA
B2: CylA-96-412 (protein)
chain: EVNSSILNINILNKDFKSFNWPYKKILSHIDPVKEQLGKDITIALIDSGIDRLHPNLQDNNLRLKNYVNDIELDEYGHGTQVAGVIDTIAPRVNLNSYKVMDGTDGNSINMLKAIVDATNDQVDIINVSLGSYKNMEIDDERFTVEAFRKVVNYARKNNILIVASAGNESRDISTGNEKHIPGGLESVITVGATKKSGDIADYSNYGSNVSIYGPAGGYGDNYKITGQIDAREMMMTYYPTSLVSPLGKAADFPDGYTLSFGTSLATPEVSAALAAIMSKNVDNSKDSNEVLNTLFENADSFIDKNSMLKYKEVRIK

Legend:
His6-ElxO = His6-ElxO activity assay (NADPH absorbance at 340 nm, LC-MS); assay type: biochemical, Staphylococcus epidermidis 15X154; settings: LC-MS analysis
Experimental: Wild type or mutant His6-ElxO (2 or 10 μM) and purified peptide (0.1 to 5 mM) were incubated with NADPH (2.5 mM) in assay buffer (100 mM HEPES, 500 mM NaCl, pH 7.5) at 25° C. Reaction progress was monitored by UV spectrophotometry to measure initial rates, measuring the disappearance of NADPH absorbance at 340 nm. […] The mobile phase was 0.1% (v/v) formic acid in water (A) and methanol (B). A gradient of 0-70% (v/v) B in A over 30 minutes and a flow rate of 0.5 mL min^−1 were used.
Synthetic lactocin S (50 μM), obtained from Prof. J. Vederas (University of Alberta), was incubated with His6-ElxO (50 μM) and NADPH (10 mM) in assay buffer (100 mM HEPES, 500 mM NaCl, pH 7.5) at room temperature for 12 h. […] A gradient of 3-97% (v/v) B (0.10% (v/v) formic acid in methanol) in A (0.1% (v/v) formic acid in water) over 12 min was used.

[1] = test system: Pediococcus acidilactici Pac1.0; assay: Agar diffusion bioactivity assay; assay type: cell-based; settings: for activity against P. acidilactici Pac1.0: agar diffusion
Experimental: (§1) Agar diffusion bioactivity assays were performed using de Man-Rogosa-Sharpe (MRS) agar media. For each assay, aliquots of agar medium inoculated with overnight cultures of indicator strain (1/100 dilution) were poured into sterile plates. Aliquots of 20 μL of sample were placed into wells made on the solidified agar and the plates were incubated at 37° C. overnight. For determination of critical concentration, the diameter of the inhibition zones were determined and fitted to the equation D=a+b×(C), where D is the diameter of the inhibition zone, C is the concentration of bacteriocin, and a and b are constant parameters. For MIC determinations, serial dilutions of peptides were prepared in MRS broth and aliquots of 50 μL were dissolved in 150 μL of a 1 to 50 dilution of an overnight culture of indicator strain in fresh MRS broth on 96-well plates. The cultures were incubated at 37° C. overnight and the wells with no bacterial growth (OD600<0.3) were determined.

L. sake L45 = assay: Agar diffusion bioactivity assay, lactocin S producer strain; assay type: cell-based, Lactobacillus sake
Experimental: as §1

modified CylLS [2] = assay: Kinetic analysis of full length CylA and CylA-96-412 against modified CylLS (LC/MS); assay type: biochemical, Enterococcus faecalis
Experimental: Targeted peptides were dissolved in H2O to a final concentration of 3 mg/mL. To a 85 μL solution of peptides, 10 μL of 500 mM HEPES buffer (pH 7.5) was added followed by 5 μL of 0.5 mg/mL AspN protease (for modified CylLL and CylLS peptides), 0.1 mg/mL CylA protease (for modified and unmodified CylLL, CylLS peptides, and modified HalA2-GDVQAE peptide) or 0.1 mg/mL LicP protease (for LicA2). For cleavage tests of the engineered GDVQAE peptides, CylA was added to a final concentration of 0.01 mg/mL, whereas the peptide was added to a concentration of 0.3 mg/mL with 50 mM HEPES buffer (pH 7.5). The protease cleavage reaction mixtures were kept at 25° C. for 1 to 48 h. Osmotic pressure was adjusted with NaCl solution with a final concentration of 150 mM. The digested peptide mixture was directly used for antimicrobial and hemolytic assay. For the kinetic analysis of CylA and its mutant proteins, His6-CylA-27-412 and His6-CylA-27-412-E95A proteins were added to a final concentration of 500 ng/mL and 2.5 μg/mL (22 nM and 110 nM), respectively, with modified CylLS supplied at a concentration of 0.3 mg/mL (36 μM). The reactions were allowed to proceed at room temperature and were stopped by 1% TFA at different time points for LC/MS analysis. Halα and Halβ were obtained by factor Xa cleavage of modified HalA1Xa and HalA2 Xa peptides using the procedure of Y. Shi, et al. J. Am. Chem. Soc. 2011, 133, 2338. CylLL″ and CylLS″ were prepared in the same way using modified CylLL-E-1K and CylLS-E-1K peptides as described in W. Tang and W. A. van der Donk, Nat. Chem. Biol. 2013, 9, 157.
As full length CylA is not available due to its self-cleavage, His6-CylA-27-412-E95A was chosen to serve as a substituent of full length CylA as the self-cleavage was abolished whereas the conserved catalytic C-terminal region of CylA remained unchanged. To obtain the mature protease CylA-96-412, His6-CylA-27-412 was aged at 4° C. for 12 hours to allow the self-cleavage to proceed until CylA-96-412 was the dominant peak monitored by MALDI-TOF MS. The aged protein mixture was directly used as a substituent of CylA-96-412. To test the proteases' activities, CylA-96-412 and His6-CylA-27-412-E95A were supplied with a final concentration of 22 nM and 110 nM, respectively, with modified CylLS served at a concentration of 36 μM. The reactions were stopped at 3 minute, 6 minute, 12 minute and 24 minute by 1% TFA and the formation of mature CylLS″ was monitored by liquid chromatography MS (LC/MS). […] The production of core peptide was analyzed by extracted ion chromatography monitoring the desired product mass 1017 (M+2H^+).

[3] = Storage and freeze-thaw stability of the proteases; assay type: physicochemical
modified CylLS [4] = biological target: modified CylLS
[5] = serial dilution agar diffusion, versus control samples containing native lactocin S

| Molecule | reduction by His6-ElxO in the presence of NADPH (His6-ElxO) | other results |
| --- | --- | --- |
| Pyr-APVLA (Pyruvoyl-APVLA) [resembles the N-terminus of lactocin S] | reduced |  |
| OBu-AAIAK | substrates for the enzyme |  |
| Pyr-AAVLK | reduced |  |
| Pyr-AAIV (Pyruvoyl-AAIV) | reduced |  |
| Obu-RAIVK | accepted as substrates |  |
| lactocin S [reference compound] | confirming the formation of dihydrolactocin S | activity against P. acidilactici Pac1.0 [1]: active; activity against L. sake L45 (L. sake L45): not against L. sake L45 |
| Glx-AAIVK | no significant formation of the reduced peptide |  |
| Pyr-AAI (Pyruvoyl-Ala-Ala-Ile) | reduced |  |
| Pyr-LGPAIK (Pyruvoyl-LGPAIK) [mimics the N-terminal portion of dehydroepicidin 280] | reduced |  |
| OBu-AAAVK ({Butanoyl(2-oxo)}-AAAVK) | substrates for the enzyme |  |
| Obu-AAIVK | accepted as substrates |  |
| Pyr-BPVLAAVAVAKKK | reduced |  |
| dihydrolactocin S |  | activity against P. acidilactici Pac1.0 [1]: active; critical concentrations (no inhibition zone) [1, 5]: smaller; inhibition zones [1, 5]: slightly larger; activity against L. sake L45 (L. sake L45): not against L. sake L45 |
| OBu-AGPAIR ({Butanoyl(2-oxo)}-AGPAIR) [resembles the N-terminus of Pep5] | reduced |  |
| B1 |  | turnover rate (modified CylLS [2]): 20 min⁻¹; activity after multiple rounds of freeze-thaw [3]: no obvious decrease of activity; stability on storage ([3]; −20° C): stable |
| B2 |  | rate of proteolysis, formation of CylLS″ by LC/MS (22 nM enzyme, 36 µM substrate) (modified CylLS [4]): CylA-96-412 catalyzed the proteolysis of 20 substrate peptides per minute; rate of proteolysis of modified CylLS (modified CylLS [2]; enzyme 22 nM, modified CylLS 36 μM, room temperature, LC/MS): 20 substrate peptides per minute |
